PubChem BioAssay (NCI)
“And” between values parts separate entries of the source, which are not always exact repeats. Equal values may be shown once.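 Test compounds were applied to cells in 96-well plates for 48 hours at 5 doses. Abbreviation: GI50, concentration required for 50% inhibition of growth. TGI is the concentration that stops growth completely.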 Where a SMILES comes first, the peptide text is derived from it. [ ]: non-standard residue; d: D form. 2Nal = N[CH](Cc1ccc2ccccc2c1)C(=O)O

What was measured:
Test in all cases: NCI anticancer screen, dose series, 48 h
786-0 renal = system: 786-0 renal
CCRF-CEM leukemia = system: CCRF-CEM leukemia
COLO 205 colon = system: COLO 205 colon
HOP-92 NSCLC = system: HOP-92 NSCLC
HT29 colon = system: HT29 colon
MOLT-4 leukemia = system: MOLT-4 leukemia
NCI-H460 lung = system: NCI-H460 lung
SF-295 CNS = system: SF-295 CNS
SF-539 CNS = system: SF-539 CNS
T-47D breast = system: T-47D breast

SMILES	TGI (786-0 renal)	TGI (CCRF-CEM leukemia)	TGI (COLO 205 colon)	TGI (HOP-92 NSCLC) [µM]	TGI (HT29 colon) [µM]	TGI (MOLT-4 leukemia) [µM]	TGI (NCI-H460 lung)	TGI (SF-295 CNS) [µM]	TGI (SF-539 CNS)	GI50 (786-0 renal) [µM]	GI50 (CCRF-CEM leukemia) [µM]	GI50 (COLO 205 colon) [µM]	GI50 (HOP-92 NSCLC) [µM]	GI50 (HT29 colon) [µM]	GI50 (MOLT-4 leukemia) [µM]	GI50 (NCI-H460 lung) [µM]	GI50 (SF-295 CNS) [µM]	GI50 (SF-539 CNS) [µM]	TGI (T-47D breast) [µM]	GI50 (T-47D breast) [µM]
Oc1cccc(C2SCc3nc4ccccc4n32)c1 (centres undefined)	> 100 µM	> 100 µM	> 100 µM	> 100	> 100	> 100	> 100 µM	> 100	> 100 µM											
Fc1cccc(F)c1C1SCc2nc3ccccc3n21 (centres undefined)	> 100 µM	> 100 µM	> 100 µM	95.3	> 100	> 100	> 100 µM	> 100	> 100 µM											
C/C=C(/C)C(=O)OC1C=C(CO)C(=O)C(OC(=O)/C(C)=C\C)C1C(C)C (centres undefined)	2.63 µM	4.19 µM	2.75 µM	1.15	2.33	3.89	2.94 µM	3.35	2.69 µM	1.08	0.321	0.823	0.528	0.625	0.335	1.25	1.82	1.38		
CNC(=O)OCc1nc(S(C)=O)n(C)c1COC(=O)NC (centres undefined)	> 100 µM	> 100 µM	> 62.6 µM	> 77.8	> 100	> 100	> 100 µM	> 100	> 100 µM											
COCCOC(C)C(/C=N/NC(N)=S)=N/NC(N)=S (centres undefined)	> 100 µM		> 100 µM	> 100		> 100	> 100 µM	> 100	> 100 µM	> 100		> 100	> 100		0.0558	> 100		> 100	> 100	
C=C(CO)CC(O)c1ccccc1 (centres undefined)	> 100 µM	> 100 µM	> 100 µM	> 100	> 100	> 100	> 100 µM	> 100	> 100 µM											
CSc1s[s+]c(SC)c1[O-]	30.3 µM	> 100 µM	68.8 µM	> 100	74.1	48.2	> 100 µM	> 100	43.2 µM											
COc1ccc(/C=N/NC(=O)O)cc1	> 100 µM		> 100 µM		> 100	> 100	> 100 µM	> 100	> 100 µM										> 100	
CC(NC(=O)C(N)Cc1ccccc1)C(=O)NC(Cc1ccc(O)cc1)C(=O)NC(Cc1c[nH]c2ccccc12)C(=O)NC(CCCCN)C(=O)NC(C(=O)NC(C)C(=O)NC(Cc1ccc2ccccc2c1)C(N)=O)C(C)C (centres undefined) (H-FAYWKVA[2Nal]-NH2; configuration not given here)	> 12.5 µM and 65.1 µM	> 12.5 µM and 29.4 µM	> 12.5 µM and 61.2 µM		> 100	32	> 12.5 µM and 52.3 µM	> 12.5	> 12.5 µM and 62.4 µM	24.8	16	27.1		37.1	16.7	22.7		21.8	> 12.5	
Cc1ccccc1NC(=O)C(=O)Cc1nc2ccccc2s1	> 100 µM	> 100 µM	> 100 µM	> 100	> 100	> 100	> 100 µM	> 100	> 100 µM											
COc1cc2cc(C(=O)O)[nH]c2cc1OCc1ccccc1	> 100 µM	> 100 µM	> 100 µM		> 100	> 100	> 100 µM	> 100	> 100 µM	> 100	> 100	> 100		> 100	> 100	> 100	> 100	> 100	> 100	> 100
CCCCCN(CCCCC)C(=O)[C@@H](CCC(=O)OCc1ccccc1)NC(=O)c1cc2ccccc2[nH]1	> 100 µM	> 100 µM	> 100 µM	> 100	> 100		> 100 µM	> 100	> 100 µM											
CN(C)CC1(C)CC/C(=C\c2ccc3c(c2)OCO3)C1=O (centres undefined)	> 100 µM	> 100 µM	> 100 µM	> 100	> 100	> 100	> 100 µM	> 100	> 100 µM											
N/C(=N\C(=S)N1CCCCC1)N1CCCCC1	> 100 µM	> 100 µM		> 100	> 100	> 100	> 100 µM	> 100	> 100 µM											
COc1ccc2cc(C(=O)/C=C/c3ccc(OC)c(OC)c3)ccc2c1	35.4 µM		73.5 µM	80.3	76.4	> 100	> 100 µM	> 100	16.3 µM	18.8		30.7	13.2	11.9	5.97	7.38	35.6	3.77	> 100	43.4
COc1ccc(OC)c(CCc2cc(OC)c(OC)cc2C)c1	> 100 µM	> 100 µM	> 100 µM		> 100	> 100	> 100 µM	47.2												
Cc1ccc(NC(=O)SCCC(=O)O)cc1NC(=O)SCCC(=O)O	> 100 µM	> 100 µM	> 10 µM		> 100	> 100	> 100 µM	> 100	> 100 µM											
O=C1OC(=O)C2C3CCC(O3)C12 (centres undefined)	> 100 µM	> 100 µM	> 100 µM	> 100	> 100	> 100	> 100 µM	> 100	> 100 µM											
NC(C(=O)O)C(N)C(=O)O (centres undefined)	> 100 µM		> 100 µM	> 100	> 100	> 100	> 100 µM	> 100	> 100 µM										> 100	
